Test [1] addresses T1, Sec61-mediated protein translocation (membrane integration of Ii) (Canis lupus familiaris, UniProt P38377).
T1 construct: cell-free translation system supplemented with ER microsomes derived from canine pancreas; from tissue; host or cells: canine pancreas ER microsomes (nuclease-treated); the Ii substrate was translated in vitro from T7-transcribed RNA
In words: In vitro membrane insertion assay of Ii with ER microsomes. In kind it is biochemical, canine. From the text: Having previously established that the principal molecular basis for the cytotoxicity of Ipom-F is its strong, yet reversible, binding to Sec61α and the resultant wide-ranging blockade of Sec61-mediated protein translocation at the ER [13], we sought evidence that this mechanism also underlies the cytotoxic effects of 1 and other open-chain analogues. […] For comparative purposes, we analyzed the effects of 2 [13] and two closed-chain compounds: Ipom-F and the diester-modified analogue 22 [11] in parallel (Figure 3A).
Following the resolution of radiolabeled proteins by SDS-PAGE (Figure 3B), we used the efficiency with which the N-terminal domain of the type II integral membrane protein Ii (short form of HLA class II histocompatibility antigen gamma chain, isoform 1) was N-glycosylated inside the ER lumen as a robust reporter for the authentic membrane integration of this model Sec61-dependent protein client (Figure 3B, right upper panel, 0Gly versus 2 Gly forms).
(§1) Linear DNA of the short form of human HLA class II histocompatibility antigen gamma chain (Ii; P04232, […], residues 17–232) or human glycophorin C (GypC; P04921) were generated by PCR and transcribed into RNA using T7 RNA polymerase (Promega). Membrane insertion assays (20 µL, 1 h at 30 °C, containing 6.5% (v/v) nuclease-treated ER microsomes (from stock with OD280 = 44/mL)), endoglycosidase Hf (New England Biolabs) treatment, sample resolution by SDS-PAGE (16% polyacrylamide gels) and gel drying were performed as previously described. Following exposure to a phosphorimaging plate for 24–72 h, radiolabeled products were visualized using a Typhoon FLA-7000 (GE Healthcare, Tokyo, Japan) and the ratio of the signal intensity for the N-glycosylated (XGly) and non-glycosylated (0Gly) forms obtained using AIDA v.5.0 (Raytest Isotopenmeβgeräte). This value was then expressed relative to the matched DMSO control (set to 100%) in order to estimate the mean relative insertion (± SEM) from insertion experiments performed in triplicate (n = 3, biologically independent experiments). IC50 value estimates were determined in Prism 8 (GraphPad, San Diego, CA, USA) using nonlinear regression to fit data to a curve of variable slope (four parameters) using the least-squares fitting method, with the top and bottom plateaus of the curve defined as 100% and 7.67% (the mean of all data at 500 µM across all compounds), respectively.

The next test has as its system HCT116 Sec61α-G80W cells. In words: Resazurin-based cell viability assay in HCT116 Sec61α-G80W cells. Also noted: species or system human. The note with it: 50 nM, 72 h. The text has this: To confirm that Sec61α is the primary target of open-chain analogues and that this interaction underlies their cytotoxic effects, we next used a resazurin-based cell viability assay (Figure 3F) to compare the effects of each compound on the growth of HCT-116 cells that were wild-type for Sec61α (HCT116 Sec61α-WT) or carrying a heterozygous point mutant in SEC61A1 (HCT116 Sec61α-G80W) that confers resistance to Ipom-F, and reduces binding of mycolactone to the Sec61 translocon by mechanism that involves an alteration in translocon dynamics.
The human breast cancer cell line (MDA-MB-231) was maintained in a DMEM high glucose culture medium supplemented with 10% (v/v) fetal bovine serum (FBS) and 2 mM L-glutamine. […] Cytotoxicity assays were performed in triplicate sets as previously described and viable cells were counted using an automated cell counter (Bio-Rad TC20) immediately before each experiment. […] After that, all cells were incubated at 37 °C for a further 1–3 h and the emission of each well at 620 nm was detected using a Synergy H1 Hybrid multi-mode plate reader (BioTek, Agilent Technologies, Palo Alto, CA, USA) at excitation 580 nm. […] IC50 value estimates were determined using nonlinear regression to fit data to a curve of variable slope (four parameters) using the least-squares fitting method. […]
In general terms: Alamar Blue is a resazurin reagent that responds to reducing activity.

In the next test the test system is HCT116 Sec61α-WT cells. The test can be described thus: Resazurin-based cell viability assay in HCT116 Sec61α-WT cells. Also noted: species or system human. The note with it: HCT116 Sec61α-WT cells; for cell death: 50 nM; for IC50: Homo sapiens, HCT-116. Here is the method: Parental (Sec61α-WT) […] All cell lines were maintained in a 5% CO2 humidified incubator at 37 °C. Cytotoxicity assays were performed in triplicate sets as previously described and viable cells were counted using an automated cell counter (Bio-Rad TC20) immediately before each experiment. Compound stock solutions in DMSO (10 mM) were diluted with supplemented culture media (MDA-MB-231 cells: high glucose DMEM; HCT116 Sec61α-WT and Sec61α-G80W cells: McCoy’s (modified) 5A) to make a series of gradient fresh working solutions at equal DMSO percentage immediately prior to each test. […] For MDA-MB-231 cells, the media were discarded and […] fresh medium containing 10% (v/v) alamarBlue HS cell viability reagent (resazurin stock solution) (ThermoFisher, Waltham, MA, USA, A50100) was added to each well. For Sec61α-WT or Sec61α-G80W HCT-116 cells, the media was not discarded and alamarBlue HS cell viability reagent (resazurin stock solution) (ThermoFisher, Waltham, MA, USA, A50100) was added to 10% (v/v). After that, all cells were incubated at 37 °C for a further 1–3 h and the emission of each well at 620 nm was detected using a Synergy H1 Hybrid multi-mode plate reader (BioTek, Agilent Technologies, Palo Alto, CA, USA) at excitation 580 nm. […] IC50 value estimates were determined using nonlinear regression to fit data to a curve of variable slope (four parameters) using the least-squares fitting method.

Test [2] has as its system membrane integration of GypC. The test can be described thus: In vitro membrane insertion assay of GypC with ER microsomes (selectivity control). In kind it is biochemical, canine. The conditions noted are these: 1 µM compound. The protocol: Following the successful synthesis of analogue 3, we first analyzed its effects on the in vitro membrane integration of our two model protein substrates, Ii and GypC (Figure 6A–C).
as §1, with “IC50 value estimates were determined in Prism 8 (GraphPad, San Diego, CA, USA) using nonlinear regression to fit data to a curve of variable slope (four parameters) using the least-squares fitting method, with the top and bottom plateaus of the curve defined as 100% and 7.67% (the mean of all data at 500 µM across all compounds), respectively.” left out

A further test deals with MDA-MB-231 cells. In words: Resazurin-based cytotoxicity assay in MDA-MB-231 cells. In kind it is cell-based, human. The note with it: for IC50: Homo sapiens. The text has this: (§2) To investigate the impact of ring-opening, we first submitted the open-chain analogue 1 [9] to the National Cancer Institute (NCI) 60-cell line screening (Supplementary Material S1) and determined the cytotoxicity of nine newly synthesized open-chain analogues 4–12 (Figure 2, Supplementary Materials S2 and S3) against MDA-MB-231 cells (Table S1). […] Furthermore, the majority of the nine new open-chain analogues were modestly less cytotoxic towards MDA-MB-231 cells when compared to their direct ring-closed counterparts (analogues 13–21 matching with 4–12; Figures S1 and S2 and Table S1).
The human breast cancer cell line (MDA-MB-231) was maintained in a DMEM high glucose culture medium supplemented with 10% (v/v) fetal bovine serum (FBS) and 2 mM L-glutamine. Parental (Sec61α-WT) HCT-116 (human colorectal cancer cells, ATCC, CCL-247) and mutant (Sec61α-G80W) HCT-116 cells were maintained in McCoy’s 5A (modified) medium ((ThermoFisher, Waltham, MA, USA, 16600-082)) supplemented with 10% (v/v) FBS (Gibco, 10500-064) and 100 units/mL penicillin and […] streptomycin (Gibco, cat: 15140-122). All cell lines were maintained in a 5% CO2 humidified incubator at 37 °C. Cytotoxicity assays were performed in triplicate sets as previously described and viable cells were counted using an automated cell counter (Bio-Rad TC20) immediately before each experiment. Compound stock solutions in DMSO (10 mM) were diluted with supplemented culture media (MDA-MB-231 cells: high glucose DMEM; HCT116 Sec61α-WT and Sec61α-G80W cells: McCoy’s (modified) 5A) to make a series of gradient fresh working solutions at equal DMSO percentage immediately prior to each test. First, […] of cells at a cell density of […] (MDA-MB-231 cells) or 2.5 × 10^4 cells/mL (Sec61α-WT or Sec61α-G80W HCT-116 cells) were seeded in black 96-well microtiter plates (Falcon, product 353219; 2500 cells/well) and incubated at 37° C for 24 h. Subsequently, the cells were treated with either […] of the freshly made gradient working solution in a total volume of […]/well (MDA-MB-231 cells) or 25 mL of freshly made gradient in a total volume of […]/well (Sec61α-WT or Sec61α-G80W HCT-116 cells) at 37 °C for 72 h. For MDA-MB-231 cells, the media were discarded and […] fresh medium containing 10% (v/v) alamarBlue HS cell viability reagent (resazurin stock solution) (ThermoFisher, Waltham, MA, USA, A50100) was added to each well. For Sec61α-WT or Sec61α-G80W HCT-116 cells, the media was not discarded and alamarBlue HS cell viability reagent (resazurin stock solution) (ThermoFisher, Waltham, MA, USA, A50100) was added to 10% (v/v). After that, all cells were incubated at 37 °C for a further 1–3 h and the emission of each well at 620 nm was detected using a Synergy H1 Hybrid multi-mode plate reader (BioTek, Agilent Technologies, Palo Alto, CA, USA) at excitation 580 nm. […] IC50 value estimates were determined using nonlinear regression to fit data to a curve of variable slope (four parameters) using the least-squares fitting method. For HCT-116 cell IC50 curves, the top and bottom plateaus were defined as 100% and 23.70% (the mean of all data at 25 µM across all compounds), respectively.

Another test relates to NCI 60-cell line. The test can be described thus: NCI 60-cell line screening. In kind it is cell-based, human.
Text: as §2

Read-outs that look alike come from different tables or passages of the source.

As a reminder, the GI50 is the concentration at which growth is held to half of that of the control.

T1 sequence (P60058 whole entry): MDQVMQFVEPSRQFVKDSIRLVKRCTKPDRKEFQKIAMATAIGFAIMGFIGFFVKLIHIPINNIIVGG
T1 sequence (P38377 2-476): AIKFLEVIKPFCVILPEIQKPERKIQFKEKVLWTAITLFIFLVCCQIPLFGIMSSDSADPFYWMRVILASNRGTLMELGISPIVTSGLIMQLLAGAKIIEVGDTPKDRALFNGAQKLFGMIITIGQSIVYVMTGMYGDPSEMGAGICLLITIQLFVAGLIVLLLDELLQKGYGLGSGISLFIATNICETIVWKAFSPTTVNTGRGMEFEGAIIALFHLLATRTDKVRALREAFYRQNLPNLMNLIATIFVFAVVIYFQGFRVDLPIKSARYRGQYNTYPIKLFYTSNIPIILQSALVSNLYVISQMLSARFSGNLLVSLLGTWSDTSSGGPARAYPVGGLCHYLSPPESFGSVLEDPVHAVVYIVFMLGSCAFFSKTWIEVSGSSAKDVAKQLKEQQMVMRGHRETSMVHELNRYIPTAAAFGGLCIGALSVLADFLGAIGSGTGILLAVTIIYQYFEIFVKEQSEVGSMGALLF
T1 sequence (P60467 2-96, further chain): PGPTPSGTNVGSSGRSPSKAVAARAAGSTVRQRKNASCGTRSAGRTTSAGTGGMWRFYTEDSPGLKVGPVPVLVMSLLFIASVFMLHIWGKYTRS

`CC=C(C)C(=O)OC1C(O)C(OC2C(OC(CCCCC)CCCCC)OC(C)C(OC(C)=O)C2O)OC(COC(=O)CCC(=O)OCCCC)C1OC(=O)C=Cc1ccccc1` (stereo not drawn) [analogue 3]: the “reduction in Ii membrane integration” value in test [1] (1 µM compound) is recorded as 73–86%. In addition, the IC50 was 242 nM in test [1] (estimated from titration 500 µM–5 nM, read-out: IC50 (in vitro membrane integration of Ii)) and 40 nM in the test on HCT116 Sec61α-WT cells (72 h, titration 25 µM–1 nM, read-out: IC50 (cytotoxicity)). Moreover, the “effect on cell viability” value with HCT116 Sec61α-G80W cells was “cell death was not observed”. Further, in the test on HCT116 Sec61α-WT cells (72 h), the cell death is recorded as ~ 58%. The “effect on membrane integration of GypC” value in test [2] was “did not affect”.
Consider `C=CCCCC(=O)CCC(=O)OC[C@H]1O[C@@H](O[C@H]2[C@H](O[C@H](CC=C)CCCCC)O[C@H](C)[C@H](OC(C)=O)[C@@H]2O)[C@H](O)[C@@H](OC(=O)/C(C)=C/C)[C@@H]1OC(=O)/C=C/c1ccccc1` [analogue 1], for which the IC50 in the test on MDA-MB-231 cells (MDA-MB-231, 72 h, MDA-MB-231 cells, 72 h, read-out: IC50 (cytotoxicity)) is about 60 nM; in the test on MDA-MB-231 cells (MDA-MB-231, MDA-MB-231 cells, at least three independent experiments, read-out: IC50 ± SD, ring-open), 59 ± 8.1 nM; in test [1] (Table 1, Ii membrane integration, read-out: In Vitro Translocation Inhibition (IC50)) it was 562 nM; in the test on HCT116 Sec61α-WT cells (Table 1, read-out: Cytotoxicity HCT-116 Cells (IC50)) it was 170 nM. For the same molecule, the “loss in potency when compared to Ipom-F” value in the test on MDA-MB-231 cells (MDA-MB-231 cells IC50) is 9 fold; in the test on NCI 60-cell line (NCI 60-cell line average GI50), 4–5 fold. Further, the GI50 in the test with NCI 60-cell line (Homo sapiens, NCI 60-cell line screening, average over cell lines, read-out: average GI50) was about 135 nM. The “inhibition of in vitro membrane integration of Ii” value in test [1] (1 µM compound, versus DMSO control) is listed as “efficiently, albeit variably, inhibited”. Moreover, the cell death with HCT116 Sec61α-WT cells (72 h) is 48–64%.

(Values after publication PMC9320607, “Synthesis, Biological Evaluation and Docking Studies of Ring-Opened Analogues of Ipomoeassin F” (Molecules, 2022).)
